Assay results published in article PMC10974768 (Toxins, 2024).
Read-outs that look alike come from different tables or passages of the source.

Experiments:
[1] = system: CYP2C8; conditions: cited from earlier work
[2] = system: CYP1A2, CYP2B6, CYP2E1, CYP2C9, CYP2A6, CYP3A4 (summary bound over all); test: in vitro; conditions: chicken, microsomes, pH 7.4
Method: (§1) A cocktail-approach for elucidating the metabolites profiling and CYP450 inhibition was conducted as in Lin et al. with minor changes. The incubation mixture contained 50 μL of 0.2 mg/mL of CLM, 10 μL of 0.1 M phosphate buffer (pH 7.4), 40 μL of 1 mM NADPH and six probe substrates with a total volume of 200 μL. The specific probe substrates used for each CYP450 isoenzyme in the incubation mixture were as follows: PH (CYP1A2), BP (CYP2B6), CLN (CYP2E1), TBD (CYP2C9), CAN (CYP2A6), and MDZ (CYP3A4). Probes substrates were dissolved in methanol as stock solution (1 mg/mL). All of them were diluted to the final concentrations (see Supplemental Materials) with incubation buffer and the percentage of organic solvent in the final incubation volume was below 1% (v/v). Briefly, the mixture was preincubated in a thermoshaker (Biosan, Geraardsbergen, Belgium) for 5 min at 37 °C prior to the initiation of the reaction with NADPH.4Na. After incubation, the mixture was terminated by 400 μL ice-cold acetonitrile. […] A volume of 5 µL of supernatant was analysed using UHPLC-MS/MS.

[3] = system: CYP1A2; test: in vitro; conditions: chicken, microsomes, pH 7.4
Method: as §1

[4] = system: CYP2A6; test: in vitro; conditions: chicken, microsomes, pH 7.4
Method: as §1

[5] = system: CYP2B6; test: in vitro; conditions: chicken, microsomes, pH 7.4
Method: as §1

[6] = system: CYP2C9; test: in vitro; conditions: chicken, microsomes, pH 7.4
Method: as §1

[7] = system: CYP2E1; test: in vitro; conditions: chicken, pH 7.4
Method: as §1

[8] = system: CYP3A4; test: in vitro; conditions: chicken, pH 7.4
Method: as §1

[9] = in vivo; type: in vivo, broiler chickens (Ross 308); conditions: for TIA concentration in chicken plasma, Treatment group: AFB1 diet 20 µg/kg feed for 2 weeks
[10] = system: broilers; conditions: AFB1 and TIA co-administrated
[11] = system: CYP3A4; conditions: read-out: IC50 for CYP3A4; human liver microsomes; cited from earlier work
[12] = system: CYP2C8; conditions: cited from earlier work; remark: listed apart in the source
[13] = system: CYP3A; conditions: chickens; doses of 25 and 125 mg/kg body weight; cited from earlier work
[14] = chickens exposed to AFB1 (750 µg/kg); nonsignificant; cited from earlier work
[15] = system: CYP1A, CYP2A, CYP2C, CYP2B, CYP2E and CYP3A in porcine liver microsomes; conditions: concentration of 3 μM; cited from earlier work
[16] = AFB1 diet 20 µg/kg feed for 2 weeks vs control, TIA oral 25 mg/kg BW, p < 0.01
[17] = TIA oral bolus 25 mg/kg BW, chickens not pretreated with AFB1 (control feed for 2 weeks), n = 9, mean ± SD

## CC1(C)S[C@@H]2[C@H](NC(=O)[C@H](N)c3ccc(O)cc3)C(=O)N2[C@H]1C(=O)O [Amoxicillin]
[1]
  IC50: 830 µM

## C=C[C@]1(C)C[C@@H](OC(=O)CSCCN(CC)CC)[C@]2(C)[C@H](C)CC[C@]3(CCC(=O)[C@H]32)[C@@H](C)[C@@H]1O [TIA, tiamulin]
[2]
  IC50: > 7.6 µM
[3]
  IC50: > 40 µM
[4]
  IC50: 7.6 µM
[5]
  IC50: > 40 µM
[6]
  IC50: > 40 µM
[7]; microsomes
  IC50: > 40 µM
[7]
  IC50 for CYP2E1: 47.6 µM
[8]; microsomes
  IC50: > 40 µM
[8]
  IC50 for CYP3A4: 334.2 µM
[9]; 0.25 h after oral TIA 25 mg/kg BW, mean ± SD
  TIA concentration in chicken plasma, Treatment group: 134 ± 71.5 ng/mL
[9]; 0.50 h after oral TIA 25 mg/kg BW, mean ± SD
  TIA concentration in chicken plasma, Treatment group: 83.7 ± 40.2 ng/mL
[9]; 1 h after oral TIA 25 mg/kg BW, mean ± SD
  TIA concentration in chicken plasma, Treatment group: 76.7 ± 40.2 ng/mL
[9]; 2 h after oral TIA 25 mg/kg BW, mean ± SD
  TIA concentration in chicken plasma, Treatment group: 91.0 ± 61.2 ng/mL
[9]; 3 h after oral TIA 25 mg/kg BW, mean ± SD
  TIA concentration in chicken plasma, Treatment group: 73.6 ± 32.9 ng/mL
[9]; 4 h after oral TIA 25 mg/kg BW, mean ± SD
  TIA concentration in chicken plasma, Treatment group: 29.6 ± 13.8 ng/mL
[9]; 6 h after oral TIA 25 mg/kg BW, mean ± SD
  TIA concentration in chicken plasma, Treatment group: 10.8 ± 3.6 ng/mL
[9]; 8 h after oral TIA 25 mg/kg BW, mean ± SD
  TIA concentration in chicken plasma, Treatment group: 10.4 ± 3.7 ng/mL
[9]; 12 h after oral TIA 25 mg/kg BW, mean ± SD
  TIA concentration in chicken plasma, Treatment group: 9.60 ± 3.0 ng/mL
[9]; 24 h after oral TIA 25 mg/kg BW, mean ± SD
  TIA concentration in chicken plasma, Treatment group: 9.50 ± 3.3 ng/mL
[9]; AFB1 diet 20 µg/kg feed for 2 weeks vs control, TIA oral 25 mg/kg BW
  increase of Cmax of TIA by AFB1 exposure: 155%
[9]; [16]
  CL_F_obs of TIA in AFB1-exposed group lower than in the control group: 63%
  Vd_F_obs of TIA in AFB1-exposed group lower than in the control group: 57%
  increase of AUClast of TIA by AFB1 exposure: 167%
[9]; [17]
  Tmax, Control: 0.4 ± 0.2 h
  Vd_F_obs, Control: 715.1 ± 228.45 L/kg
[9]; TIA oral bolus 25 mg/kg BW, chickens pretreated with AFB1 contaminated diet (20 µg/kg feed for 2 weeks), n = 8, mean ± SD
  Vd_F_obs, Treatment: 407.1 ± 142.5 L/kg
[9]; male, Ross 308, in vivo, po, 25 mg/kg, TIA oral bolus 25 mg/kg BW, chickens not pretreated with AFB1 (control feed for 2 weeks), last sampling point 180 h, n = 9, mean ± SD, read-out: AUClast, Control
  AUC(0-t): 294 ± 63.3 ng·h/mL
[9]; male, Ross 308, in vivo, po, 25 mg/kg, TIA oral bolus 25 mg/kg BW, chickens not pretreated with AFB1 (control feed for 2 weeks), n = 9, mean ± SD, read-out: AUCINF_obs, Control
  AUC(0-inf): 357 ± 69.6 ng·h/mL
[9]; male, Ross 308, in vivo, po, 25 mg/kg, TIA oral bolus 25 mg/kg BW, chickens not pretreated with AFB1 (control feed for 2 weeks), n = 9, mean ± SD, read-out: CL_F_obs, Control (converted)
  CL/F: 1200 mL/min/kg
[9]; male, Ross 308, in vivo, po, 25 mg/kg, TIA oral bolus 25 mg/kg BW, chickens not pretreated with AFB1 (control feed for 2 weeks), n = 9, mean ± SD, read-out: Cmax, Control
  Cmax: 89.9 ± 45.9 ng/mL
[9]; male, Ross 308, in vivo, po, 25 mg/kg, TIA oral bolus 25 mg/kg BW, chickens not pretreated with AFB1 (control feed for 2 weeks), n = 9, mean ± SD, read-out: MRTlast, Control
  MRT last: 6.8 ± 1.4 h
[9]; male, Ross 308, in vivo, po, 25 mg/kg, TIA oral bolus 25 mg/kg BW, chickens not pretreated with AFB1 (control feed for 2 weeks), n = 9, mean ± SD, read-out: T1/2λz, Control (converted)
  half-life: 7 ± 2.9 h
[9]; male, Ross 308, in vivo, po, 25 mg/kg, TIA oral bolus 25 mg/kg BW, chickens not pretreated with AFB1 (control feed for 2 weeks), n = 9, mean ± SD, read-out: Tmax, Control
  Tmax: 0.44 h
[9]; male, Ross 308, in vivo, po, 25 mg/kg, TIA oral bolus 25 mg/kg BW, chickens pretreated with AFB1 contaminated diet (20 µg/kg feed for 2 weeks), n = 8, mean ± SD, read-out: AUCINF_obs, Treatment
  AUC(0-inf): 586 ± 174 ng·h/mL
[9]; male, Ross 308, in vivo, po, 25 mg/kg, TIA oral bolus 25 mg/kg BW, chickens pretreated with AFB1 contaminated diet (20 µg/kg feed for 2 weeks), n = 8, mean ± SD, read-out: CL_F_obs, Treatment (converted)
  CL/F: 763 mL/min/kg
[9]; male, Ross 308, in vivo, po, 25 mg/kg, TIA oral bolus 25 mg/kg BW, chickens pretreated with AFB1 contaminated diet (20 µg/kg feed for 2 weeks), n = 8, mean ± SD, read-out: Cmax, Treatment
  Cmax: 142 ± 65.4 ng/mL
[9]; male, Ross 308, in vivo, po, 25 mg/kg, TIA oral bolus 25 mg/kg BW, chickens pretreated with AFB1 contaminated diet (20 µg/kg feed for 2 weeks), n = 8, mean ± SD, read-out: MRTlast, Treatment
  MRT last: 6.2 ± 1.8 h
[9]; male, Ross 308, in vivo, po, 25 mg/kg, TIA oral bolus 25 mg/kg BW, chickens pretreated with AFB1 contaminated diet (20 µg/kg feed for 2 weeks), n = 8, mean ± SD, read-out: T1/2λz, Treatment (converted)
  half-life: 6.3 ± 2.2 h
[9]; male, Ross 308, in vivo, po, 25 mg/kg, TIA oral bolus 25 mg/kg BW, chickens pretreated with AFB1 contaminated diet (20 µg/kg feed for 2 weeks), n = 8, mean ± SD, read-out: Tmax, Treatment
  Tmax: 1 ± 1.1 h
[10]
  adverse health effects in broilers: No significant adverse health effects
[11]
  IC50: 1.6 µM

## COc1cc(Cc2cnc(N)nc2N)cc(OC)c1OC [Trimethoprim]
[12]
  inhibitory effect on CYP2C8: weak inhibitory effect

## CCN1CCN(c2cc3c(cc2F)c(=O)c(C(=O)O)cn3C2CC2)CC1 [enrofloxacin]
[13]
  inhibition of CYP3A activity: inhibit CYP3A activity
[14]
  increase of AUC0–∞: 17%
  increase of T1/2a: 17%
  increase of Tmax: 26%

## CCC[C@@H]1C[C@@H](C(=O)N[C@@H]([C@H]2O[C@H](SC)[C@H](O)[C@@H](O)[C@H]2O)[C@@H](C)O)N(C)C1 [lincomycin]
[15]
  inhibition of CYP1A, CYP2A, CYP2C, CYP2B, CYP2E and CYP3A: inhibits
